SMILES strings stand for the structures.

The term melting point denotes the temperature of the solid-liquid transition. Compound `O=C(NC[C@]1(O)CC[C@H](COc2ccccc2)CC1)c1ccc(O)cc1` [Example 8, 4-Hydroxy-N-{[trans-1-hydroxy-4-(phenoxymethyl)cyclohexyl]methyl}benzamide] gave a melting point of 189.5 °C.
Compound `O=C(NC[C@]1(O)CC[C@H](COc2c(F)cccc2F)CC1)c1ccc(O)cc1` [Example 12, N-({trans-4-[(2,6-Difluorophenoxy)methyl]-1-hydroxycyclohexyl}methyl)-4-hydroxybenzamide] gave a melting point of 153.7 °C.
For `O=C(NC[C@]1(O)CC[C@H](COc2ccccc2Cl)CC1)c1ccc(O)cc1` [Example 14, N-({trans-4-[(2-Chlorophenoxy)methyl]-1-hydroxycyclohexyl}methyl)-4-hydroxybenzamide] the value was 159 °C.
For `COc1cccc(OC[C@H]2CC[C@@](O)(CNC(=O)c3ccc(O)cc3)CC2)c1` [Example 20, 4-Hydroxy-N-({trans-1-hydroxy-4-[(3-methoxyphenoxy)methyl]cyclohexyl}methyl)benzamide] the value was 190.3 °C.
In turn, `O=C(NC[C@]1(O)CC[C@H](COCc2ccc(Cl)cc2)CC1)c1ccc(O)cc1` [Example 25, N-[(trans-4-{[(4-Chlorobenzyl)oxy]methyl}-1-hydroxycyclohexyl)methyl]-4-hydroxybenzamide] registered a melting point of 164.1 °C.
For `O=C(NC[C@]1(O)CC[C@H](CCOc2ccccc2)CC1)c1ccc(O)cc1` [Example 26, 4-Hydroxy-N-{[trans-1-hydroxy-4-(2-phenoxyethyl)cyclohexyl]methyl}benzamide] the value was 168.7 °C; for `O=C(NC[C@]1(O)CC[C@H](CCOc2ccccc2F)CC1)c1ccc(O)cc1` [Example 27, N-({trans-4-[2-(2-Fluorophenoxy)ethyl]-1-hydroxycyclohexyl}methyl)-4-hydroxybenzamide], 178.9 °C; for `O=C(NC[C@]1(O)CC[C@H](CCOc2cccc(F)c2)CC1)c1ccc(O)cc1` [Example 28, N-({trans-4-[2-(3-Fluorophenoxy)ethyl]-1-hydroxycyclohexyl}methyl)-4-hydroxybenzamide], 134.5 °C.
The compound `O=C(NC[C@]1(O)CC[C@H](CCOc2ccc(F)cc2)CC1)c1ccc(O)cc1` [Example 29, N-({trans-4-[2-(4-Fluorophenoxy)ethyl]-1-hydroxycyclohexyl}methyl)-4-hydroxybenzamide] came in with a melting point of 177.5 °C.
`O=C(NC[C@]1(O)CC[C@@H](Oc2ccc(Cl)cc2)CC1)c1ccc(O)cc1` [Example 32, N-{[cis-4-(4-Chlorophenoxy)-1-hydroxycyclohexyl]methyl}-4-hydroxybenzamide] returned a melting point of 196.6 °C.
`O=C(NC[C@]1(O)CC[C@H](OCc2ccc(F)cc2)CC1)c1ccc(O)cc1` [Example 47, N-({trans-4-[(4-Fluorobenzyl)oxy]-1-hydroxycyclohexyl}methyl)-4-hydroxybenzamide] came in with a melting point of 122.1 °C.
`O=C(NC[C@]1(O)CC[C@H](OCc2cccc(F)c2)CC1)c1ccc(O)c(F)c1` [Example 49]: the melting point came to 138.2 °C.
For the compound `O=C(NC[C@]1(O)CC[C@H](CCOc2ccccc2F)CC1)c1ccc(O)c(F)c1` [Example 51, 3-Fluoro-N-({trans-4-[2-(2-fluorophenoxy)ethyl]-1-hydroxycyclohexyl}methyl)-4-hydroxybenzamide], the melting point was 184.7 °C.
The compound `O=C(NC[C@H]1CC[C@@H](Oc2ccc(F)cc2)CC1)c1ccc(O)cc1` [Example 54, N-{[cis-4-(4-Fluorophenoxy)cyclohexyl]methyl}-4-hydroxybenzamide] displayed a melting point of 170.5 °C.
On to `O=C(NC[C@H]1CC[C@@H](Oc2ccc(F)cc2)CC1)c1ccc(O)c(F)c1` [Example 55, 3-Fluoro-N-{[cis-4-(4-fluorophenoxy)cyclohexyl]methyl}-4-hydroxybenzamide], for which the melting point amounted to 149.5 °C.
`O=C(NC[C@H]1CC[C@@H](OCCc2ccccc2)CC1)c1cn[nH]c1` [Example 72, N-{[cis-4-(2-Phenylethoxy)cyclohexyl]methyl}-1H-pyrazole-4-carboxamide] showed a melting point of 145 °C.
Regarding `O=C(NC[C@H]1CC[C@@H](CCOc2ccccc2)CC1)c1cn[nH]c1` [Example 77, N-{[cis-4-(2-Phenoxyethyl)cyclohexyl]methyl}-1H-pyrazole-4-carboxamide], the melting point stood at 155.7 °C.
In turn, `O=C(NC[C@H]1CC[C@@H](COc2ccccc2)CC1)c1ccc(O)nc1` [Example 82, 6-Hydroxy-N-{[cis-4-(phenoxymethyl)cyclohexyl]methyl}nicotinamide] yielded a melting point of 189.8 °C.
Consider `O=C(NC[C@H]1CC[C@@H](CCOc2ccccc2)CC1)c1ccnc(O)c1` [Example 83, 2-Hydroxy-N-{[cis-4-(2-phenoxyethyl)cyclohexyl]methyl}isonicotinamide], for which the melting point turned out to be 199.9 °C.
`O=C(NC[C@H]1CC[C@@H](CCOc2ccccc2)CC1)c1ccc(O)nc1` [Example 84, 6-Hydroxy-N-{[cis-4-(2-phenoxyethyl)cyclohexyl]methyl}nicotinamide] registered a melting point of 167.6 °C.
`O=C(NC[C@H]1CC[C@@H](CCOc2ccccc2)CC1)c1ccn[nH]1` [Example 85, N-{[cis-4-(2-Phenoxyethyl)cyclohexyl]methyl}-1H-pyrazole-5-carboxamide] showed a melting point of 130.5 °C.
Consider `O=C(NC[C@H]1CC[C@@H](CCOc2ccccc2)CC1)c1c[nH]cn1` [Example 86, N-{[cis-4-(2-Phenoxyethyl)cyclohexyl]methyl}-1H-imidazole-4-carboxamide], for which the melting point came to 169.6 °C.
In turn, `O=C(NC[C@H]1CC[C@@H](CCOc2ccccc2)CC1)c1ccc(=O)[nH]n1` [Example 93, 6-Oxo-N-{[cis-4-(2-phenoxyethyl)cyclohexyl]methyl}-1,6-dihydropyridazine-3-carboxamide] yielded a melting point of 177.5 °C.
Turning to `O=C(NC[C@H]1CC[C@@H](CCOc2ccccc2)CC1)c1cc[nH]c1` [Example 96, N-{[cis-4-(2-Phenoxyethyl)cyclohexyl]methyl}-1H-pyrrole-3-carboxamide], the melting point stood at 121 °C.
`O=C(NC[C@H]1CC[C@@H](COc2ccccc2F)CC1)c1cn[nH]c1` [Example 100, N-({cis-4-[(2-Fluorophenoxy)methyl]cyclohexyl}methyl)-1H-pyrazole-4-carboxamide] yielded a melting point of 139.8 °C.
In turn, `O=C(NC[C@H]1CC[C@@H](CCOc2ccccc2)CC1)c1ccc2[nH]c(=O)sc2c1` [Example 101, 2-Oxo-N-{[cis-4-(2-phenoxyethyl)cyclohexyl]methyl}-2,3-dihydro-1,3-benzothiazole-6-carboxamid] came in with a melting point of 159.9 °C.
For the compound `Nc1n[nH]cc1C(=O)NC[C@H]1CC[C@@H](CCOc2ccccc2)CC1` [Example 102, 3-Amino-N-{[cis-4-(2-phenoxyethyl)cyclohexyl]methyl)-1H-pyrazole-4-carboxamide], the melting point is 129.3 °C.
In the case of `O=C(NC[C@H]1CC[C@@H](CCOc2ccccc2)CC1)c1ccc2[nH]ncc2c1` [Example 103, N-{[cis-4-(2-Phenoxyethyl)cyclohexyl]methyl}-1H-indazole-5-carboxamide], the melting point is 144.5 °C.

These data come from patent US20070167452A1, “Therapeutic amide derivatives” (PFIZER, INC., priority 2004, published 2007).
